Assay results: patent US11607414B2, “Small molecule inhibitors of EGFR and PI3K” (The Regents of the University of Michigan, priority 2014, dated 2023)
pIC50: −log10 of the molar value.

Assays:
[1] = system: phosphorylation of AKT in HCT-116 tumors; test: In vivo pharmacodynamics in subcutaneous HCT-116 tumors, pAKT; details: intraperitoneal 100 mg/kg
Excerpt: (§1) However, additional synthesis of MOL-162 is needed to allow a full pharmacodynamic time course study to be carried out to determine the maximal degree of target inhibition of both targets after single and repeated daily dosing.

[2] = system: phosphorylation of EGFR in HCT-116 tumors; test: In vivo pharmacodynamics in subcutaneous HCT-116 tumors, pEGFR; details: intraperitoneal 100 mg/kg
Excerpt: as §1

[3] = molecular target: panel of 39 kinases (tyrosine, serine/threonine and lipid kinases); test: Broad panel of 39 kinases at 10 μM; format: biochemical
Excerpt: Numerous hits were designed with nanomolar potency against EGFR and PIK3CA. […] A structure-activity relationship was shown for these agents against both of the biochemical targets.

EGFR = EGFR (Homo sapiens, UniProt P00533); test: Z'-LYTE biochemical kinase assay, EGFR; details: read-out: potency against EGFR
EGFR, sequence (P00533 25-1210): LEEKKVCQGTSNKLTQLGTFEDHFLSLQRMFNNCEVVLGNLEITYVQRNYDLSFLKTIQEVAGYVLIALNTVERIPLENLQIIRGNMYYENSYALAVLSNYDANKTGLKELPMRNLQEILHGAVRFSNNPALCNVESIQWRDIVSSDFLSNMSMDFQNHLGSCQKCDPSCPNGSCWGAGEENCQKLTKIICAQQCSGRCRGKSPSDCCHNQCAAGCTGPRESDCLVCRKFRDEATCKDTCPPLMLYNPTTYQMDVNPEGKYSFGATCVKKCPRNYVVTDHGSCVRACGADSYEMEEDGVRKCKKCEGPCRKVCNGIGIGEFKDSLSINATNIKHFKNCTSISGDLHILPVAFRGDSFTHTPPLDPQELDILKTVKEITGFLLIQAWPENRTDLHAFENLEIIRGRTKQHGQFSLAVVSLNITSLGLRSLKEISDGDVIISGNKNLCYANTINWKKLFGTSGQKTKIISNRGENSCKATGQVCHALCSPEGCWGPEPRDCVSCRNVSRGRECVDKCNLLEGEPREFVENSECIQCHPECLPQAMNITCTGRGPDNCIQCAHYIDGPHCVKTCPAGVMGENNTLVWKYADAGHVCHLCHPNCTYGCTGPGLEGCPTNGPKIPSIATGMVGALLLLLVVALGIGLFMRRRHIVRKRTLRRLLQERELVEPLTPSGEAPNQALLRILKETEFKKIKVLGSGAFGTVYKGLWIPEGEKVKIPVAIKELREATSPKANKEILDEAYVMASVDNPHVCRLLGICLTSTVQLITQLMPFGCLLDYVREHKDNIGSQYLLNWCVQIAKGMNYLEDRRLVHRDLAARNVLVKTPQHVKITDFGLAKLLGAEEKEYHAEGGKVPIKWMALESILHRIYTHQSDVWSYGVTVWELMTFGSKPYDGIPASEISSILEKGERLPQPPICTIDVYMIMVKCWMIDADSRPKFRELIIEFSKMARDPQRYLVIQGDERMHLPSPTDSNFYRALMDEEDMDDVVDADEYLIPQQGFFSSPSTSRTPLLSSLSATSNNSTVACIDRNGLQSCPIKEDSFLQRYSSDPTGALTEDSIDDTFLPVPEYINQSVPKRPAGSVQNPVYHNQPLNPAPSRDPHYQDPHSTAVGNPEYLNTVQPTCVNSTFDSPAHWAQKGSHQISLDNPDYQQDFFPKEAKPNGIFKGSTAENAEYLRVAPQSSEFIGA
Method: Various compounds were tested for their ability to inhibit EGFR and PIK3CA. The assays determining inhibitions are given in Example 2 Assays-Z′-LYTE® and ADAPTA.
Assays: The Z′-LYTE® biochemical assay employs a fluorescence-based, coupled-enzyme format and is based on the differential sensitivity of phosphorylated and non-phosphorylated peptides to proteolytic cleavage (FIG. 6). The peptide substrate is labeled with two fluorophores—one at each end— that make up a FRET pair. In the primary reaction, the kinase transfers the gamma-phosphate of ATP to a single tyrosine, serine or threonine residue in a synthetic FRET-peptide. […] A ratiometric method, which calculates the ratio (the Emission Ratio) of donor emission to acceptor emission after excitation of the donor fluorophore at 400 nm, is used to quantitate reaction progress.
A significant benefit of this ratiometric method for quantitating reaction progress is the elimination of well-to-well variations in FRET-peptide concentration and signal intensities. […]
Both cleaved and uncleaved FRET-peptides contribute to the fluorescence signals and therefore to the Emission Ratio. The extent of phosphorylation of the FRET-peptide can be calculated from the Emission Ratio. […]
Bar-coded Corning, low volume NBS, black 384-well plate (Corning Cat. 4514) 1. […] Read on fluorescence plate reader and analyze the data.

COL-205 xenografts = test: Xenograft study, COL-205; format: in vivo, NCR nude mice; details: higher dose (100 mg/kg), daily for 10 days, oral
Excerpt: (§2) FIGS. 8A, 8B, 8C, 8D, and 8E show in vivo efficacy of MOL-201 against, HCT-116, A431, COL-205, SK-MEL5 and MDA-MB-468 xenografts. […] The method is outlined in Example 2—Xenograft Studies.
(§3) Female 6-7 week old NCR nude mice (CrTac:NCr-Foxn1nu from Taconic), 6-7 weeks old, were implanted subcutaneously with 1×10^6 to 1×10^7 cells in a 1:1 serum-free media/Matrigel® mixture into the region of the right axilla. Mice were randomized into treatment groups and treatments initiated when tumors reached 100 to 200 mg. MTX-201 was administered daily for 10 days by oral gavage as a clear yellow solution in 5% DMSO/95% PEG300, based upon individual animal body weight (0.2 ml/20 g). Subcutaneous tumor volume and body weights were measured two to three times a week. Tumor volumes were calculated by measuring two perpendicular diameters with calipers and using the formula: tumor volume=(length×width2)/2. Mice were held following cessation of treatment until tumor burdens reached −1000 mg, to allow for calculation of tumor growth delay. Percent treated/control (% T/C) was calculated by dividing the median treated tumor weight by the median control tumor weight and multiplying by 100 on the last day of treatment. Tumor growth delay (T-C) was calculated by subtracting the median time to reach evaluation size (750 mg) of the treated group by the median time to evaluation size of the control group. […]

A431 xenografts = test: Xenograft study, A431; format: in vivo, NCR nude mice; details: higher dose (100 mg/kg), daily for 10 days, oral
Excerpt: as §2, §3

HCT-116 xenografts = test: Xenograft study, HCT-116; format: in vivo, NCR nude mice; details: higher dose (100 mg/kg), daily for 10 days, oral
Excerpt: as §2, §3

NCI-60 cell panel = test: NCI-60 COMPARE panel, one-dose % growth; format: cell-based, human; details: 10 μM
Method: The method is outlined in Example 2—NCI COMPARE Panel.
The human tumor cell lines of the cancer screening panel are grown in RPMI 1640 medium containing 5% fetal bovine serum and 2 mM L-glutamine. For a typical screening experiment, cells are inoculated into 96 well microtiter plates in 100 μL at plating densities ranging from 5,000 to 40,000 cells/well depending on the doubling time of individual cell lines. After cell inoculation, the microtiter plates are incubated at 37° C., 5% CO2, 95% air and 100% relative humidity for 24 h prior to addition of experimental drugs. […]
Following drug addition, the plates are incubated for an additional 48 h at 37° C., 5% CO2, 95% air, and 100% relative humidity. […] Bound stain is subsequently solubilized with 10 mM trizma base, and the absorbance is read on an automated plate reader at a wavelength of 515 nm. […] Using the seven absorbance measurements [time zero, (Tz), control growth, (C), and test growth in the presence of drug at the five concentration levels (Ti)], the percentage growth is calculated at each of the drug concentrations levels. Percentage growth inhibition is calculated as: [(Ti−Tz)/(C−Tz)]×100 for concentrations for which Ti>/=Tz [(Ti−Tz)/Tz]×100 for concentrations for which Ti<Tz. […]

[4] = system: HCT-116, A431, COL-205, SK-MEL5 and MDA-MB-468 xenografts; test: Xenograft studies, model not stated for the lower dose; format: in vivo, NCR nude mice; details: lower dose of 20 mg/kg
Excerpt: as §2, §3

[5] = Tolerability in xenograft-bearing mice; format: in vivo; details: oral, daily for 10 days at 20 and 100 mg/kg
Excerpt: as §2, §3

SK-MEL5 xenografts = test: Xenograft study, SK-MEL5; format: in vivo, NCR nude mice; details: higher dose (100 mg/kg), daily for 10 days, oral
Excerpt: as §2, §3

| Compound | inhibition of pAKT in tumors [1] | inhibition of pEGFR in tumors [2] | kinase profile (in words) [3] | pIC50 (EGFR) | anti-tumor activity (T/C and T-C) (COL-205 xenografts) | anti-tumor activity (T/C and T-C) (A431 xenografts) | anti-tumor activity (T/C and T-C) (HCT-116 xenografts) | % growth in NCI-60 panel (in words) (NCI-60 cell panel) | anti-tumor activity [4] | tolerability [5] | anti-tumor activity (T/C and T-C) (SK-MEL5 xenografts) |
| --- | --- | --- | --- | --- | --- | --- | --- | --- | --- | --- | --- |
| COc1ccc(Nc2ncnc3ccc(-c4cncc(NS(C)(=O)=O)c4)cc23)cc1Cl [MOL-153, N-(5-(4-((3-chloro-4-methoxyphenyl)amino)quinazolin-6-yl)pyridin-3-yl)methanesulfonamide] | inhibition of pAKT | not detected | clean kinase profile | 6.46 |  |  |  |  |  |  |  |
| CS(=O)(=O)Nc1cc(-c2ccc3ncnc(Nc4cccc(Cl)c4)c3c2)cnc1Cl [MOL-201, N-(2-chloro-5-(4-((3-chlorophenyl)amino)quinazolin-6-yl)pyridin-3-yl)methanesulfonamide] |  |  |  |  | Anti-tumor activity observed | Anti-tumor activity observed | Anti-tumor activity observed | broad cell kill | elicited anti-tumor activity | well tolerated by mice with no clinical observations of toxicity | Anti-tumor activity observed |
